Experimental data taken from patent US6709840B1, “Anergy associated genes” (The Board of Trustees of the Leland Stanford Junior …, priority 2000, dated 2004).

What was measured:
Type in all cases: cell-based, murine
[1] = system: 1-4 (GRAIL) mRNA in 11.3.7 T cells; experiment: Real-time quantitative PCR of ddPCR clone 1-4
Method: (§1) “Real-time” Quantitative PCR. Total RNA was isolated as described above and 0.5 μg was reversed transcribed using the TaqMan reverse transcription reagent kit (PE Applied Biosystems) according to recommended protocols. Subsequently, 1 μl aliquots of cDNA (equivalent to 5 ng of input RNA) were amplified in separate reactions with primer pairs and fluorescent probe sets specific for GAPDH (to generate a standard curve to control for input cDNA amounts) and for target mRNAs identified in the differential display screen. Resting, activated and anergic RNA samples were also amplified using specific primers and a probe for IL-2. Standard cycling conditions and PCR protocols were used for the ABI PRISM 7700 Sequence Detection System (PE Applied Biosystems). […]
(§2) Using the relative standard curve method described in protocols provided by ABI, changes in target RNA expression for the different ddPCR cDNA clones and IL-2 were calculated as fold increases over resting cells. To control for input RNA amounts, the relative amount of GAPDH RNA was determined for each sample (resting, anergic, and activated) from a standard curve generated for GAPDH. […] Standard curves for both target genes and GAPDH were determined by quantitative PCR reactions using serial dilutions of known amounts of cDNA or plasmids containing relevant inserts.

[2] = system: 9.3.1-2 (MRC-OX44) mRNA in 11.3.7 T cells; experiment: Real-time quantitative PCR of ddPCR clone 9.3.1-2
Method: as §1, §2

[3] = system: 19.9.6-3 (Nurr2) mRNA in 11.3.7 T cells; experiment: Real-time quantitative PCR of ddPCR clone 19.9.6-3
Method: as §1, §2

11.3.7 T cells = experiment: Anergy assay: proliferation on restimulation (3H-Thymidine)
Method: Anergy Assays. Resting 11.3.7 T cells were purified on a Lympholyte M (Cedarlane Labs) gradient and washed three times with 1×PBS. Costimulatory incompetent APCs, (B7 negative RT 7.7 fibroblasts), were irradiated at 3000 rads prior to use in antigen-induced anergy cultures. 6×10^6 T cells were mixed with 6×10^6 B7 negative RT7.7 APCs in 20 mls of culture media. […] For ionomycin-induced anergy, 2×10^6 11.3.7 T cells were incubated with 1.5 μM ionomycin (Calbiochem). For full activation, 1 μg/ml PMA was added to the cultures.
At selected time intervals, aliquots of both cultures were harvested, pelleted, and washed twice before adding 10 μl of anti-CD4 microbeads (Millenyl Biotech) to separate CD4+ T cells from the RT 7.7 fibroblast APCs, according to the manufacturer's protocol. As determined by flow cytometry, greater than 95% purity was routinely achieved. To test for the anergic phenotype, 50×10^4 T cells/well were then cultured with irradiated DBA/2 splenocytes and various concentrations of peptide in a 96 well plate. In selected cultures, murine rIL-2 (Genzyme) was added at 5 Units/ml during the restimulation period, to test the viability of the anergized T cells. After 48 hours of culture, the cells were pulsed for 18 hours with 3H-Thymidine, then harvested and counted.

[4] = system: 6.5.2-4 (lymphotactin) mRNA in 11.3.7 T cells; experiment: Real-time quantitative PCR of ddPCR clone 6.5.2-4
Method: as §1, §2

[5] = system: A9.5.7-4 (cbl-b) mRNA in 11.3.7 T cells; experiment: Real-time quantitative PCR of ddPCR clone A9.5.7-4
Method: as §1, §2

[6] = system: IL-2 mRNA in 11.3.7 T cells; experiment: Real-time quantitative PCR of IL-2 message; details: 4 hours ionomycin vs PMA and ionomycin (100%)
Method: as §1, §2

[7] = fold over resting T cells (1.0), GAPDH normalized
[8] = ionomycin-induced anergy (ion vs PMA/ion)

| Molecule | 1-4 mRNA expression, Anergic + ion [1, 7] [fold] | 1-4 anergic:activated ratio [1, 8] [fold] | 9.3.1-2 mRNA expression, Anergic + ion [2, 7] [fold] | 9.3.1-2 anergic:activated ratio [2, 8] [fold] | 19.9.6-3 mRNA expression, Anergic + ion [3, 7] [fold] | 19.9.6-3 anergic:activated ratio [3, 8] [fold] | ionomycin-induced anergy (11.3.7 T cells; 1.5 μM ionomycin, 6 hours incubation) | induction of functional unresponsiveness (11.3.7 T cells; 1.5 μM ionomycin, one hour incubation) | 6.5.2-4 mRNA expression, Anergic + ion [4, 7] [fold] | 6.5.2-4 anergic:activated ratio [4, 8] [fold] | A9.5.7-4 mRNA expression, Anergic + ion [5, 7] [fold] | A9.5.7-4 anergic:activated ratio [5, 8] [fold] | IL-2 mRNA level relative to activated cells [6] [%] | proliferative response of anergized T cells with IL-2 added (11.3.7 T cells; antigen-induced anergy, rIL-2 5 Units/ml during restimulation) | unresponsiveness with IL-2 added to restimulation cultures (11.3.7 T cells; ionomycin-induced anergy, rIL-2 5 Units/ml during restimulation) |
| --- | --- | --- | --- | --- | --- | --- | --- | --- | --- | --- | --- | --- | --- | --- | --- |
| C[C@H](CCC(=O)O)C[C@H](C)C[C@H](C)C(=O)/C=C(\O)[C@H](C)C[C@H](C)C/C=C/[C@@H](C)[C@@H](O)[C@@H](C)[C@@H](O)C[C@@H]1CC[C@@](C)([C@H]2CC[C@@](C)([C@@H](C)O)O2)O1 [Ionomycin, ionomycin] | 4.0 | 3.3 | 10.2 | 0.71 | 21.7 | 1.1 | complete | did not induce a state of functional unresponsiveness | 153 | 0.84 | 11.0 | 1.4 | ≤ 0.5 | – | – |
| IL-2: murine rIL-2 (Genzyme), 5 Units/ml during restimulation (protein, UniProt P04351 21-169, looked up) Interleukin-2: APTSSSTSSSTAEAQQQQQQQQQQQQHLEQLLMDLQELLSRMENYRNLKLPRMLTFKFYLPKQATELKDLQCLEDELGPLRHVLDLTQSKSFQLEDAENFISNIRVTVVKLKGSDNTFECQFDDESATVVDFLRRWIAFCQSIISTSPQ | – | – | – | – | – | – | – | – | – | – | – | – | – | induced as strong a proliferative response in the anergized T cells as it did in the resting, control T cells | overcome |
